Entries after “also recorded” stand apart in the source; their conditions may differ.
Experiments:
[1] = intravenous, cited from earlier work
[2] = tested on: human HIP iPSCs (clone 15; no kill switch); assay: s.c. HIP iPSCs without kill switch in NSG mice treated with pro-drug; format: in vivo
Method: (§1) Subcutaneous. Healthy male NSG mice were anesthetized via isoflurane inhalation anesthesia in a knockdown chamber. The anesthetized mice were removed from the chamber and placed in a supine position. The injection site (right inguinal area) was sprayed with 70% EtOH. Cells were injected subcutaneously proximal to the inguinal region.
(§2) Mice were anesthetized via isoflurane inhalation anesthesia and injected intraperitoneally (IP) with 250 μl luciferin (45.45 mg/ml). The mice were then positioned in a nose cone in the bioluminescence chamber (anesthesia was maintained at 1.5% with 500 ml oxygen/min). The mice were imaged for 180 seconds. A circle was drawn around the region of interest (ROI) giving a reading of photons/sec of emitted light.
Human HIP iPSCs (clone 15; no kill switch) were injected subcutaneously into Group 6 NSG mice. Flucytosine HD (500 mg/kg) treatment was administered daily intraperitoneally. As shown in FIG. 81A-B, human HIP iPSC survival appeared to be impaired by flucytosine HD although cells had no kill switch. The group was expanded for data validation (FIG. 81C-D and FIG. 81E-F). […]
Human HIP iPSCs (clone 15; no kill switch) were injected subcutaneously into Group 6 NSG mice. Ganciclovir HD (75 mg/kg) treatment was administered daily intraperitoneally starting Day 0. […]

[3] = tested on: human HIP iPSCs (CyD clone 2G11); assay: Cytosine deaminase kill switch: s.c. HIP-CyD iPSCs in NSG mice; format: in vivo
Method: as §1, §2
Human HIP iPSCs (CyD clone 2G11) were injected subcutaneously into Group 1 NSG mice. Flucytosine LD (200 mg/kg) treatment was administered daily intraperitoneally. […] Group 1 mice treatment was as follows: 1×10^6 hiPSC HIP CyD clone 2G11 in diluted MG, S.C.; treatment=200 mg/kg/day Flucytosine, IP (DO).

[4] = tested on: human HIP iPSCs (HSVTk clone 1-B10); assay: HsVtk kill switch: s.c. HIP-HsVtk iPSCs in NSG mice; format: in vivo
Method: as §1, §2
Human HIP iPSCs (HSVTk clone 1-B10) were injected subcutaneously into Group 1 NSG mice. Ganciclovir LD (50 mg/kg) treatment was performed daily intraperitoneally. […] Mice were checked during a 44D follow up. Group 1 mice treatment was as follows: 1×10^6 hiPSCs HIP HSVtk clone 1-B10 luc+ in diluted MG, S.C.; treatment was 50 mg/kg/day Ganciclovir, IP (DO).

[5] = tested on: HIP CD19CAR-T cells (B2M−/−, CIITA−/−, TRAC−/−, CD19-specific CAR-CD47 T cells); assay: Innate killing (NK cells, macrophages) by real-time cell analysis, HIP CAR-T cells; format: cell-based, human; details: pretreated with CD47 blocking antibody, E:T 1:1
Method: Briefly, T-cells were plated in CD19^+ tumor cell specific media. After cell index value reached 0.7, human NK cells or human macrophages were added with an E:T ratio of 1:1 with human IL-2 for NK cells and without IL-2 for macrophages. […] Data were standardized and analyzed with the real-time cell analysis instrument software.
After about 48 hours, T-cells were collected and stained with components of a live/dead cell viability staining assay. Briefly, cells were stained with calcein AM and ethidium homodimer-1 according to the manufacturer's protocol. The analysis was performed by flow cytometry and the results were expressed as percentage of dead cells.

human HIP iPSCs [6] = assay: Subcutaneous human HIP iPSCs in NSG mice with adoptive transfer of human NK cells, BLI; format: in vivo
Method: as §1
The mice were then positioned in a nose cone in the bioluminescence chamber (anesthesia was maintained at 1.5% with 500 ml oxygen/min). The mice were imaged for 180 seconds. A circle was drawn around the region of interest (ROI) giving a reading of photons/sec of emitted light.
IP dosing. The antibody (100 μl) was injected into the peritoneal cavity from the ventral surface by piercing the skin and muscle layers.
SC dosing. Mice were anesthetized via isoflurane inhalation anesthesia and placed in a supine position. The injection site (right inguinal area) was sprayed with 70% EtOH and the antibody (100 μl) was injected into the area of the implanted cells.

human HIP iPSCs [7] = assay: In vitro killing of human HIP iPSCs by human NK cells and macrophages with anti-CD47 antibody; format: cell-based; details: 100 μg/ml antibody
mock transfected T cells = assay: Innate killing by real-time cell analysis, mock transfected T cells; format: cell-based, human; details: in the presence of the antibody

Which “maximum tolerated dose (MTD)” value ([1]; monotherapy, relapsed/refractory hematologic malignancies and selected solid tumors) does the source give for “TTI-621: fusion protein of N-terminal V domain of human SIRPα fused to human IgG1 Fc region (SEQ ID NO:133)” here?
Its value is 0.2 mg/kg.

And the tolerability ([1]; phase 1)?
Its tolerability is “well tolerated”.

Which results are given for Nc1[nH]c(=O)ncc1F [Flucytosine]?
survival of HIP iPSCs without kill switch ([2]; Flucytosine HD 500 mg/kg daily intraperitoneally): impaired; time to killing of HIP-CyD iPSCs ([3]; HD 500 mg/kg daily intraperitoneally from D0): 16 to 32 days; time to killing of HIP-CyD iPSCs after starting treatment ([3]; HD 500 mg/kg daily intraperitoneally from Day 13): 3 to 11 days; time to killing of HIP-CyD iPSCs ([3]; LD 200 mg/kg daily intraperitoneally from D0): 16 to 44 days; time to killing of HIP-CyD iPSCs after starting treatment ([3]; LD 200 mg/kg daily intraperitoneally from Day 13): 3 to 11 days; benefit of HD as compared to LD ([3]; treatment from D0): No major benefit; benefit of HD compared to LD ([3]; treatment from Day 13): No benefit

Which results are given for Nc1nc(O)c2ncn(COC(CO)CO)c2n1 [Ganciclovir]?
impact on HIP iPSCs without kill switch ([2]; Ganciclovir HD 75 mg/kg daily intraperitoneally from Day 0): no killing; also recorded: no impact; time to killing of HIP-HsVtk iPSCs ([4]; HD 75 mg/kg daily intraperitoneally from D0): 12 to 16 days; time to killing of HIP-HsVtk iPSCs after start of treatment ([4]; HD 75 mg/kg daily intraperitoneally from Day 13): ≤ 7 days; time to killing of HIP-HsVtk iPSCs ([4]; LD 50 mg/kg daily intraperitoneally from D0): 12 to 24 days; time to killing of HIP-HsVtk iPSCs after start of treatment ([4]; LD 50 mg/kg daily intraperitoneally from Day 13): ≤ 7 days; benefit of HD ([4]; treatment from D0): slightly beneficial; benefit of HD compared to LD ([4]; treatment from Day 13): No obvious benefit

B1: magrolimab: anti-CD47 antibody magrolimab (Hu5F9-G4) (Forty Seven, Inc.; Gilead Sciences, Inc.) (antibody, chains of the INN, looked up, V domains shown)
VH: QVQLVQSGAEVKKPGASVKVSCKASGYTFTNYNMHWVRQAPGQRLEWMGTIYPGNDDTSYNQKFKDRVTITADTSASTAYMELSSLRSEDTAVYYCARGGYRAMDYWGQGTLVTVSS
VL: DIVMTQSPLSLPVTPGEPASISCRSSQSIVYSNGNTYLGWYLQKPGQSPQLLIYKVSNRFSGVPDRFSGSGSGTDFTLKISRVEAEDVGVYYCFQGSHVPYTFGQGTKLEIK
Which results are given for B1?
killing of HIP CAR-T cells by macrophages and NK cells on CD47 blocking [5]: susceptible to macrophage and NK cell killing; killing of HIP CAR-T cells by macrophages and NK cells on CD47 blocking ([5]; listed as macrolimab): induced killing; killing of HIP iPSCs (human HIP iPSCs [6]; magrolimab D0-D10, 5×10^4 iPSCs, 1×10^6 NK cells): killing of HIP iPSCs; re-appearance of iPSCs (human HIP iPSCs [6]; magrolimab stopped after D10, 6-month follow up): didn't re-appear; killing of human HIP iPSCs by human NK cells (human HIP iPSCs [7]): killing; killing of human HIP iPSCs by human macrophages (human HIP iPSCs [7]): killing; killing of mock transfected T cells by NK cell and macrophages (mock transfected T cells): not killed
